Experimental data from patent US10752615B2, “Spirocyclic containing compounds and pharmaceutical uses thereof” (GB005, Inc., priority 2016, dated 2020).

What was measured:
TXK = TXK (Homo sapiens (Human), UniProt P42681); experiment: Kinase inhibition assay (Nanosyn, microfluidic detection), TXK; format: biochemical; details: 1 mM ATP, 3 hours at 25° C.
Experimental: The in vitro kinase assays were performed at Nanosyn (Santa Clara, Calif.) utilizing microfluidic detection technology. The test compounds were serially pre-diluted in DMSO and added, by the acoustic dispensing (Labcyte® 550), directly to 384 well assay plates into 10 uL of a buffer with enzyme (ITK, TXK, BTK or TEC) comprising: 100 mM HEPES, pH7.5, 5 mM MgCl2, 0.1% bovine serum albumin, 1 mM DTT, 0.01% Triton X-100 and the enzyme. Final DMSO concentration was maintained at 1% in all samples, including the controls. The reactions were initiated by addition of ATP (1 mM final concentration) and the fluorescently labeled peptide substrate to a final concentration of 1 uM, and incubated for 3 hours at 25° C. Following incubation, the reactions were quenched by addition of 40 μL of termination buffer (100 mM HEPES, pH7.5, 0.01% Triton X-100, 50 mM EDTA). Terminated plates were analyzed using Caliper LabChip® 3000 microfluidic electrophoresis instrument (Caliper Life Sciences/Perkin Elmer). […] As substrate and product are separated by electrophoresis, two peaks of fluorescence are observed. Change in the relative fluorescence intensity of the substrate and product peaks was the parameter measured, reflecting enzyme activity. In the presence of inhibitor, the ratio between product and substrate is altered: signal of the product decreases, while the signal of the substrate increases. Activity in each test sample was determined as the product to sum ratio (PSR): P/(S+P), where P is the peak height of the product and S is the peak height of the […]. For each compound, enzyme activity was measured at 12 concentrations spaced by 3× dilution intervals. Negative control samples (0%-inhibition in the absence of inhibitor, DMSO only) and positive control samples (100%-inhibition, in the absence of enzyme or in the presence of control inhibitor) were assembled in replicates of four and were used to calculate %-inhibition values in the presence of compounds. Percent inhibition (Pinh) was determined using the following equation: Pinh=(PSR0%−PSRinh)/(PSR0%−PSR100%)*100, where PSRinh is the product sum ratio in the presence of inhibitor, PSR0% is the product sum ratio in the absence of inhibitor and PSR100% is the product sum ratio in 100%-inhibition control samples. To determine IC50 values, the inhibition curves (Pinh versus inhibitor concentration) were fitted by 4 parameter sigmoid dose-response model using XLfit software (IDBS).

BTK = BTK (Homo sapiens (Human), UniProt Q06187); experiment: Kinase inhibition assay (Nanosyn, microfluidic detection), BTK; format: biochemical; details: 1 mM ATP, 3 hours at 25° C.
Experimental: The in vitro kinase assays were performed at Nanosyn (Santa Clara, Calif.) utilizing microfluidic detection technology. The test compounds were serially pre-diluted in DMSO and added, by the acoustic dispensing (Labcyte® 550), directly to 384 well assay plates into 10 uL of a buffer with enzyme (ITK, TXK, BTK or TEC) comprising: 100 mM HEPES, pH7.5, 5 mM MgCl2, 0.1% bovine serum albumin, 1 mM DTT, 0.01% Triton X-100 and the enzyme. Final DMSO concentration was maintained at 1% in all samples, including the controls. The reactions were initiated by addition of ATP (1 mM final concentration) and the fluorescently labeled peptide substrate to a final concentration of 1 uM, and incubated for 3 hours at 25° C. Following incubation, the reactions were quenched by addition of 40 μL of termination buffer (100 mM HEPES, pH7.5, 0.01% Triton X-100, 50 mM EDTA). Terminated plates were analyzed using Caliper LabChip® 3000 microfluidic electrophoresis instrument (Caliper Life Sciences/Perkin Elmer). The enzymatic modification of the peptide substrate (phosphorylation) results in a change of net charge enabling electrophoretic separation of product from substrate. As substrate and product are separated by electrophoresis, two peaks of fluorescence are observed. Change in the relative fluorescence intensity of the substrate and product peaks was the parameter measured, reflecting enzyme activity. In the presence of inhibitor, the ratio between product and substrate is altered: signal of the product decreases, while the signal of the substrate increases. Activity in each test sample was determined as the product to sum ratio (PSR): P/(S+P), where P is the peak height of the product and S is the peak height of the […]. For each compound, enzyme activity was measured at 12 concentrations spaced by 3× dilution intervals. Negative control samples (0%-inhibition in the absence of inhibitor, DMSO only) and positive control samples (100%-inhibition, in the absence of enzyme or in the presence of control inhibitor) were assembled in replicates of four and were used to calculate %-inhibition values in the presence of compounds. Percent inhibition (Pinh) was determined using the following equation: Pinh=(PSR0%−PSRinh)/(PSR0%−PSR100%)*100, where PSRinh is the product sum ratio in the presence of inhibitor, PSR0% is the product sum ratio in the absence of inhibitor and PSR100% is the product sum ratio in 100%-inhibition control samples. To determine IC50 values, the inhibition curves (Pinh versus inhibitor concentration) were fitted by 4 parameter sigmoid dose-response model using XLfit software (IDBS).

BTK, sequence (Q06187 whole entry): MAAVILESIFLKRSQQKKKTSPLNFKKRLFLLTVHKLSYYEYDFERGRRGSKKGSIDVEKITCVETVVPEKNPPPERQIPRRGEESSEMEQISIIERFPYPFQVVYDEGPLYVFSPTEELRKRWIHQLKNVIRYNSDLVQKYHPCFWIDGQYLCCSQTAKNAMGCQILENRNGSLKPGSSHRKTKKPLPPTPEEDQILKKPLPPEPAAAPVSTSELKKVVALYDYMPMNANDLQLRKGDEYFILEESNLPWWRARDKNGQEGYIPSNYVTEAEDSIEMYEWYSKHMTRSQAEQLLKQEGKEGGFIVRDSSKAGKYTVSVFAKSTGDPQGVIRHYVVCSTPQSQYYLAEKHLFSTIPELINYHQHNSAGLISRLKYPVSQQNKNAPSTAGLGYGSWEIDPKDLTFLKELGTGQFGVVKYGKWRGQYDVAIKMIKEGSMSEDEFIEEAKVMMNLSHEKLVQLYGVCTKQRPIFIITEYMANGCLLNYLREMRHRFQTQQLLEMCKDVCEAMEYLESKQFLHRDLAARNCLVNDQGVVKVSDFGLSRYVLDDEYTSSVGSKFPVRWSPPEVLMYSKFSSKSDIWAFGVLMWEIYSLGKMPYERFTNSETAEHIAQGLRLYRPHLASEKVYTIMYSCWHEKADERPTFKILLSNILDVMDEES
TXK, sequence (P42681 whole entry): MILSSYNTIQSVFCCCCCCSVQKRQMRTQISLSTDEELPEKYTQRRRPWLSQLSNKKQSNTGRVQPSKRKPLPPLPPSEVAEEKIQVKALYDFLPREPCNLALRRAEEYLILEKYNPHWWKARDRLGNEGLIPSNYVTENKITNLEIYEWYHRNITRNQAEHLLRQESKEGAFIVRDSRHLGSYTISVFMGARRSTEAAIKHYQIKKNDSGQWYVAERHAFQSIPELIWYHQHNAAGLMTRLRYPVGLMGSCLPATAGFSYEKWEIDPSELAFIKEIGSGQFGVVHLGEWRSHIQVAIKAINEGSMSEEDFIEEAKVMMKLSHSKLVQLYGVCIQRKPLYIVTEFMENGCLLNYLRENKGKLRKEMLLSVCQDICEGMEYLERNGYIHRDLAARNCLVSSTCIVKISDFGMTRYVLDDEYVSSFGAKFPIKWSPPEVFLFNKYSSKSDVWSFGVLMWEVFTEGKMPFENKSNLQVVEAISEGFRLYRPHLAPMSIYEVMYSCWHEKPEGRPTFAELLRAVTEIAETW

| IC50 (TXK) | IC50 (BTK) | Compound |
| --- | --- | --- |
| 3.9 nM | 23.4 nM | C=CC(=O)N1CC[C@]2(C1)C[C@H](n1c(NC(=O)c3ccnn3C)nc3cc(CN[C@@H](C)C(C)(C)C)ccc31)C2 [Compound 14] |
| 0.55 nM | 4.4 nM | C=CC(=O)N1CC[C@]2(C1)C[C@H](n1c(NC(=O)c3ccc(C(F)F)s3)nc3ccccc31)C2 [Compound 15] |
| 1.84 nM | 4.52 nM | C=CC(=O)N1CC[C@]2(C1)C[C@H](n1c(NC(=O)c3ccncc3)nc3cc(CN[C@@H](C)C(C)(C)C)ccc31)C2 [Compound 20] |
| 1.22 nM | 1.54 nM | C=CC(=O)N1CC[C@]2(C1)C[C@H](n1c(NC(=O)c3ccno3)nc3cc(CN[C@@H](C)C(C)(C)C)ccc31)C2 [Compound 21] |
| 1.71 nM | 4.79 nM | C=CC(=O)N1CC[C@]2(C1)C[C@H](n1c(NC(=O)c3cccnc3)nc3cc(CN[C@@H](C)C(C)(C)C)ccc31)C2 [Compound 22] |
| 0.99 nM | 5.47 nM | C=CC(=O)N1CC[C@]2(C1)C[C@H](n1c(NC(=O)c3ccnc(C)c3)nc3cc(CN[C@@H](C)C(C)(C)C)ccc31)C2 [Compound 24] |
| 0.99 nM | 2.84 nM | C=CC(=O)N1CC[C@]2(C1)C[C@H](n1c(NC(=O)c3ccc(C)nc3)nc3cc(CN[C@@H](C)C(C)(C)C)ccc31)C2 [Compound 26] |
| 0.63 nM | 1.7 nM | C#Cc1ccc(C(=O)Nc2nc3cc(CN[C@@H](C)C(C)(C)C)ccc3n2[C@H]2C[C@@]3(CCN(C(=O)C=C)C3)C2)s1 [Compound 28] |
| 0.27 nM | 0.84 nM | C=CC(=O)N1CC[C@]2(C1)C[C@H](n1c(NC(=O)c3ccc(-c4cc[nH]c(=O)c4)s3)nc3cc(CO)ccc31)C2 [Compound 29] |
| 1.03 nM | 5.38 nM | C=CC(=O)N1CC[C@]2(C1)C[C@H](n1c(NC(=O)c3ccc(-c4ccc(N)nc4)s3)nc3ccccc31)C2 [Compound 31] |
| 0.7 nM | 5.45 nM | C=CC(=O)N1CC[C@]2(C1)C[C@H](n1c(NC(=O)c3ccc(OC)nc3)nc3cc(CN[C@@H](C)C(C)(C)C)ccc31)C2 [Compound 32] |
| 0.32 nM | 0.78 nM | C=CC(=O)N1CC[C@]2(C1)C[C@H](n1c(NC(=O)c3ccc(-c4ccccc4)nc3)nc3cc(CN[C@@H](C)C(C)(C)C)ccc31)C2 [Compound 33] |
| 0.45 nM | 1.39 nM | C=CC(=O)N1CC[C@]2(C1)C[C@H](n1c(NC(=O)c3ccc(C(F)F)s3)nc3cc(CN4CCCC4)ccc31)C2 [Compound 34] |
| 0.46 nM | 1.04 nM | C=CC(=O)N1CC[C@]2(C1)C[C@H](n1c(NC(=O)c3ccc(C(F)F)s3)nc3cc(CN[C@H]4CC[C@H](O)CC4)ccc31)C2 [Compound 35] |
| 0.63 nM | 1.14 nM | C=CC(=O)N1CC[C@]2(C1)C[C@H](n1c(NC(=O)c3ccc(C(F)F)s3)nc3cc(CN[C@H]4C[C@H](O)C4)ccc31)C2 [Compound 36] |
| 0.67 nM | 4.08 nM | C=CC(=O)N1CC[C@]2(C1)C[C@H](n1c(NC(=O)c3cccc(-c4cnco4)c3)nc3cc(CN[C@@H](C)C(C)(C)C)ccc31)C2 [Compound 38] |
| 0.97 nM | 5.67 nM | C=CC(=O)N1CC[C@]2(C1)C[C@H](n1c(NC(=O)c3ccc(-c4cnco4)cc3)nc3cc(CN[C@@H](C)C(C)(C)C)ccc31)C2 [Compound 39] |
| 0.72 nM | 1.16 nM | C=CC(=O)N1CC[C@]2(C1)C[C@H](n1c(NC(=O)c3ccc(-c4cnco4)s3)nc3cc(CN4CCCC4)ccc31)C2 [Compound 40] |

| IC50 (TXK) | IC50 (BTK) | Compound |
| --- | --- | --- |
| 0.92 nM | 1.81 nM | C=CC(=O)N1CC[C@]2(C1)C[C@H](n1c(NC(=O)c3ccc(-c4cnco4)s3)nc3cc(CN4CCOCC4)ccc31)C2 [Compound 41] |
| 0.32 nM | 0.53 nM | C=CC(=O)N1CC[C@]2(C1)C[C@H](n1c(NC(=O)c3ccc(-c4cnco4)s3)nc3cc(CN[C@H]4C[C@H](O)C4)ccc31)C2 [Compound 43] |
| 1.1 nM | 1.44 nM | C=CC(=O)N1CC[C@]2(C1)C[C@H](n1c(NC(=O)c3ccns3)nc3ccccc31)C2 [Compound 46] |
| 2.69 nM | 11.3 nM | C=CC(=O)N1CC[C@]2(C1)C[C@H](n1c(NC(=O)c3ccc(C)nc3)nc3ccccc31)C2 [Compound 47] |
| 1.16 nM | 4.37 nM | C=CC(=O)N1CC[C@]2(C1)C[C@H](n1c(NC(=O)c3ccc(C#N)cc3)nc3ccccc31)C2 [Compound 48] |
| 1.39 nM | 13.7 nM | C=CC(=O)N1CC[C@]2(C1)C[C@H](n1c(NC(=O)c3cccc(-c4cnco4)c3)nc3ccccc31)C2 [Compound 49] |
| 0.44 nM | 0.73 nM | C=CC(=O)N1CC[C@]2(C1)C[C@H](n1c(NC(=O)c3ccc(-c4cnco4)s3)nc3cc(N(C)C(=O)C4CCOCC4)ccc31)C2 [Compound 51] |
| 0.39 nM | 0.58 nM | C=CC(=O)N1CC[C@]2(C1)C[C@H](n1c(NC(=O)c3ccc(-c4cnco4)s3)nc3cc(N(C)C(=O)C4CC4)ccc31)C2 [Compound 52] |
| 0.39 nM | 0.64 nM | C=CC(=O)N1CC[C@]2(C1)C[C@H](n1c(NC(=O)c3ccc(-c4cnco4)s3)nc3cc(N(C)C(C)=O)ccc31)C2 [Compound 53] |
| 0.3 nM | 0.56 nM | C=CC(=O)N1CC[C@]2(C1)C[C@H](n1c(NC(=O)c3ccc(-c4cnco4)s3)nc3cc(N(C)C(=O)C(C)C)ccc31)C2 [Compound 54] |
| 3.41 nM | 27.4 nM | C=CC(=O)N1CC[C@]2(C1)C[C@H](n1c(NC(=O)c3ccc(OC)nc3)nc3ccccc31)C2 [Compound 55] |
| 0.26 nM | 1.56 nM | C=CC(=O)N1CC[C@]2(C1)C[C@H](n1c(NC(=O)c3ccc(-c4cnco4)s3)nc3cccc(F)c31)C2 [Compound 56] |
| 0.29 nM | 1.32 nM | C=CC(=O)N1CC[C@]2(C1)C[C@H](n1c(NC(=O)c3ccc(-c4cnco4)s3)nc3ccc(F)cc31)C2 [Compound 58] |
| 0.44 nM | 1.64 nM | C=CC(=O)N1CC[C@]2(C1)C[C@H](n1c(NC(=O)c3ccc(-c4cnco4)s3)nc3cc(N(C)C(=O)[C@H](C)N4CCOCC4)ccc31)C2 [Compound 59] |
| 0.4 nM | 1.15 nM | C=CC(=O)N1CC[C@]2(C1)C[C@H](n1c(NC(=O)c3ccc(-c4cnco4)s3)nc3cc(N(C)C(=O)C4CCCCC4)ccc31)C2 [Compound 60] |
| 0.49 nM | 6.77 nM | C=CC(=O)N1CC[C@]2(C1)C[C@H](n1c(NC(=O)c3ccc(-c4cnco4)s3)nc3c(F)cccc31)C2 [Compound 61] |
| 1.58 nM | 10.5 nM | C=CC(=O)N1CC[C@]2(C1)C[C@@H](n1c(NC(=O)c3ccc(-c4cnco4)s3)nc3cccc(F)c31)C2 [Compound 62] |
| 0.37 nM | 1.29 nM | C=CC(=O)N1CC[C@]2(C1)C[C@H](n1c(NC(=O)c3ccc(-c4cnco4)s3)nc3cc(Cl)ccc31)C2 [Compound 63] |
